Measurements taken from patent publication US5928185A, “Iontophoresis device for the transcutaneous delivery of an active principle such as an anionic oligosaccharide” (Sanofi, priority 1995, dated 1999).

What was measured:
[1] = Transdermic passage of sodium pentasaccharide salt by iontophoresis at constant voltage through nude rat skin (Example 1)
Method: Study of the transdermic passage of a sodium pentasaccharide salt by iontophoresis at constant voltage.
The operation was carried out in iontophoresis cells of identical structure. Each iontophoresis cell consisted of three coaxial adjacent cylindrical compartments having a cross-sectional area of 2 cm^2, namely, in this order, a donor compartment, a receiver compartment and a back-electrode compartment, these three compartments being each separated from the following one in leak-tight fashion by a piece of nude rat skin (OFA/hr/hr) used as a membrane for studying the transcutaneous diffusion. […] The receiver compartment, having a volume of 10 ml, held physiological saline solution supplemented with 500 ppm of NaN3 and was stirred using a magnetic bar. The back-electrode compartment, which was identical to the donor compartment, held 0.5 ml of a 2% by weight aqueous solution of sodium chloride as well as 500 ppm by weight of NaN3. At its opposite end from the receiver compartment, the donor compartment was equipped with a negative electrode. In the same way as the donor compartment, the back-electrode compartment was equipped with a positive electrode (back electrode).
The rat skin samples had had the subcutaneous tissue removed and had been preserved by freezing at -40° C. until they were mounted in the iontophoresis cell, with the dermic faces turned towards the receiver compartment, after they had been placed for 15 minutes in physiological saline solution supplemented with 500 ppm of NaN3.
For each of the tests which were carried out, four identical iontophoresis cells were started simultaneously. The active exchange surface area was 2 cm^2 for each skin.
A pulsed current generator made it possible to set up an electrical signal of the potentiostatic type between the electrodes of the four cells, mounted in parallel, with a peak voltage equal to 2.2 volts and a duty ratio of 50% (i.e. an average voltage of 1.1 volts) and a frequency of 25 kHz.
The pulsed current produced by the generator was applied for 6 hours, the electrode of the donor compartment of each cell being connected to the negative pole of the said generator, and the back electrodes to the positive pole.
At the end of the said time, an aliquot of the medium contained in the receiver compartment was withdrawn and the quantity of pentasaccharide that had passed through the skin separating the donor and the receiver compartments of each cell was determined by assay. A second sample was taken 24 hours after the start of each experiment, i.e. 18 hours after the electrical signal had stopped.
Five tests 1a to 1e were carried out as follows:
Test 1a: The negative electrode and the positive electrode consisted of a titanium film having a thickness equal to 10 μm. No voltage was applied to the electrodes, in order to determine the passive transcutaneous diffusion.
Test 1b: The negative electrode and the positive electrode consisted of a graphite sheet having a thickness of 60 μm.
Test 1c: The negative electrode and the positive electrode consisted of a titanium film having a thickness equal to 10 μm.
Test 1d to 1e: The negative electrode consisted of a silver film having a thickness of 15 μm, chlorided beforehand on one face in order to contain a silver chloride layer corresponding to 1.8 mAh/cm^2, whereas the positive electrode consisted of a silver film having a thickness of 15 μm, very slightly chlorided on one face (a quantity of silver chloride corresponding to 0.1 mAh/cm^2, the chlorided face of each electrode being on the side adjacent to the rat skin membrane.
In tests Ia to Id, the donor and the receiver compartments of each cell held a 0.06 molar buffer composition based on sodium monohydrogenphosphate and dihydrogenphosphate in equimolar quantities, so as to keep the pH in the said compartments at a value of about 7. In test 1e, no buffer was used.

[2] = test system: factor Xa; test: Antifactor Xa activity of the pentasaccharide sodium salt; type: biochemical
Method: The assay of the pentasaccharide in the receiver compartment was based on investigating its antifactor Xa activity. The assay was carried out either directly on the medium sampled from the receiver compartment or after dilution, using a ROTACHROM HEPARIN 8® assay kit, a complementary buffer for the assay instrument and bovine antithrombin III, these various elements being supplied by the company STAGO, using a HITACHI 717 assay instrument. The calibration curve was established using a "Golden Standard" pentasaccharide solution to which an antifactor Xa activity equal to 13 units per ml was assigned.

[3] = Transdermic passage of sodium pentasaccharide salt by iontophoresis at set intensity through nude rat skin (Example 2); type: in vitro ADME
Method: The procedure as described in Example 1 was carried out, but with the following modifications:
implementation of the iontophoresis by setting a constant intensity through each cell
use of a continuous current instead of a pulsed current
the absence of buffer in the donor and back-electrode compartments in test 2d, because these compartments are equipped with electrodes of the Ag/AgCl type, which avoid hydrolysis of water.
[…], over a period of 6 hours, using a generator making it possible to set a constant intensity irrespective of the voltages generated across the terminals of each cell.

[4] = Administration of pentasaccharide sodium salt to minipigs by iontophoresis with periodic current reversal; plasma levels (Example 4); type: in vivo, minipig
Method: Administration to minipigs of the sodium salt of a pentasaccharide by iontophoresis with set current density with periodic reversal of the current direction.
The following iontophoretic administration tests were carried out on 4 minipigs by using the same current generator and the same type of electrodes as in Example 3, and by applying the following conditions:
The electrodes themselves consisted of 15 μm thick silver films chlorided by electrolytic oxidation in a ratio of 0.5 mAh of silver chloride per cm^2. The reservoirs, also measuring 20 cm^2, consisted of a sheet of blotting paper made of cellulose fibres supplemented with polypropylene fibrils, impregnated to a level of 50 mg/cm^2 with an aqueous solution containing 2% by weight of pentasaccharide and 0.2% by weight of NaCl. Each electrode, the anode and the cathode, contained in all 1 g of solution, i.e. 20 mg of pentasaccharide (1 mg/cm^2) for an active surface area of 20 cm^2. 40 mg of pentasaccharide were therefore engaged in all per animal.
The current generator delivered a constant intensity of 2.5 mA, i.e. 125 μA/cm^2 of direct current with regular reversals of the current direction every 30 minutes for a total time of 8 hours, corresponding to the passage of […] of direct current.
Each of the electrodes, having identical structure and composition, was therefore operated alternately as the cathode and then as the anode, the presence of sodium chloride in each of the reservoirs ensuring their permanent operation as a reversible electrode, thus avoiding any parasitic reaction of hydrolysis (with a change in the pH) or oxidation/reduction of the active principle.
In test 4a, involving 3 animals with an average weight of 11.8 kg, the electrodes were put in place but not connected to the current generator, whereas for all the tests 4b, which concerned 4 animals with an average weight of 12.3 kg, the current of 2.5 mA was applied for 8 hours with automated reversal of the current direction every half hour.
In tests 4a and 4b, a number of blood samples were taken periodically up to 30 hours after the start of each experiment, as in Example 3.
The plasma levels of the various samples are indicated in Table IV for the purpose of comparing tests 4a and 4b with one another and with the results of the tests carried out in Example 3, in particular tests 3c and 3d which correspond to intravenous and subcutaneous injections.

[5] = test 2a: titanium, 0 mA/cm^2 (passive)
[6] = test 4b: iontophoresis 0.125 mA/cm^2, 8 hours, reversal every 30 minutes

quantities of pentasaccharide diffused into the receiver compartment by iontophoresis ([1]; Ag/AgCl negative electrodes (reversible)): increase very greatly
Fraction of active principle used (%) ([1]; at 6 hours, test 1a: titanium, 0 V (passive)): ~ zero
Fraction of active principle used (%) ([1]; at 6 hours, test 1b: graphite, 1.1 V): 0.1%
Fraction of active principle used (%) ([1]; at 6 hours, test 1c: titanium, 1.1 V): 0.08%
Fraction of active principle used (%) ([1]; at 6 hours, test 1e: Ag/AgCl, 1.1 V, no buffer): 2.8%
Fraction of active principle used (%) ([1]; at 6 hours, test 1d: Ag/AgCl, 1.1 V, buffer): 1.4%
Fraction of active principle used (%) ([1]; at 24 hours, test 1a: titanium, 0 V (passive)): ~ zero
Fraction of active principle used (%) ([1]; at 24 hours, test 1b: graphite, 1.1 V): 0.2%
Fraction of active principle used (%) ([1]; at 24 hours, test 1c: titanium, 1.1 V): 0.15%
Fraction of active principle used (%) ([1]; at 24 hours, test 1e: Ag/AgCl, 1.1 V, no buffer): 3.3%
Fraction of active principle used (%) ([1]; at 24 hours, test 1d: Ag/AgCl, 1.1 V, buffer): 1.5%
Antifactor activity Xa/ml at 6 hours ([1]; test 1a: titanium electrodes, 0 V (passive), buffer pH about 7): < 0.1 units per ml
Antifactor activity Xa/ml at 24 hours ([1]; test 1a: titanium, 0 V (passive)): 0.25 units per ml
Antifactor activity Xa/ml at 6 hours ([1]; test 1b: graphite electrode, average 1.1 V, buffer): 0.70 units per ml
Antifactor activity Xa/ml at 24 hours ([1]; test 1b: graphite, 1.1 V, 18 hours after current stopped): 1.13 units per ml
Antifactor activity Xa/ml at 6 hours ([1]; test 1c: titanium electrode, average 1.1 V, buffer): 0.50 units per ml
Antifactor activity Xa/ml at 24 hours ([1]; test 1c: titanium, 1.1 V, 18 hours after current stopped): 0.95 units per ml
Antifactor activity Xa/ml at 6 hours ([1]; test 1e: Ag/AgCl electrode, average 1.1 V, about 0.20 mA/cm^2, no buffer): 18.1 units per ml
Antifactor activity Xa/ml at 24 hours ([1]; test 1e: Ag/AgCl, 1.1 V, no buffer, 18 hours after current stopped): 21.4 units per ml
Antifactor activity Xa/ml at 6 hours ([1]; test 1d: Ag/AgCl electrode, average 1.1 V, about 0.20 mA/cm^2, buffer): 9.1 units per ml
Antifactor activity Xa/ml at 24 hours ([1]; test 1d: Ag/AgCl, 1.1 V, buffer, 18 hours after current stopped): 9.7 units per ml
Fraction of active principle used (%) ([3]; at 6 hours, test 2a: titanium, 0 mA/cm^2 (passive)): ~ zero
Fraction of active principle used (%) ([3]; at 6 hours, test 2b: graphite, 0.2 mA/cm^2): 0.09%
Fraction of active principle used (%) ([3]; at 6 hours, test 2c: titanium, 0.2 mA/cm^2): 0.49%
Fraction of active principle used (%) ([3]; at 6 hours, test 2d: Ag/AgCl, 0.2 mA/cm^2): 2.8%
Fraction of active principle used (%) ([3]; at 24 hours, test 2a: titanium, 0 mA/cm^2 (passive)): 0.09%
Fraction of active principle used (%) ([3]; at 24 hours, test 2b: graphite, 0.2 mA/cm^2): 0.9%
Fraction of active principle used (%) ([3]; at 24 hours, test 2c: titanium, 0.2 mA/cm^2): 0.75%
Fraction of active principle used (%) ([3]; at 24 hours, test 2d: Ag/AgCl, 0.2 mA/cm^2): 3.7%
Antifactor activity Xa/ml at 6 hours [3, 5]: 0.12 units per ml
Antifactor activity Xa/ml at 24 hours [3, 5]: 0.6 units per ml
total diffused quantity ([3]; test 2a: titanium, passive): 4.64 μg per cm^2
Antifactor activity Xa/ml at 6 hours ([3]; test 2b: graphite, 0.2 mA/cm^2): 6 units per ml
total diffused quantity ([3]; test 2b: graphite, 0.2 mA/cm^2): 45 μg per cm^2
Antifactor activity Xa/ml at 24 hours ([3]; test 2b: graphite, 0.2 mA/cm^2, 18 hours after current stopped): 5.8 units per ml
Antifactor activity Xa/ml at 6 hours ([3]; test 2c: titanium, 0.2 mA/cm^2): 3.2 units per ml
total diffused quantity ([3]; test 2c: titanium, 0.2 mA/cm^2): 38 μg per cm^2
Antifactor activity Xa/ml at 24 hours ([3]; test 2c: titanium, 0.2 mA/cm^2, 18 hours after current stopped): 4.9 units per ml
total diffused quantity per mAh ([3]; test 2d: Ag/AgCl electrodes): 154 μg/cm^2 per mAh
total diffused quantity ([3]; test 2d: Ag/AgCl, 0.2 mA/cm^2): 185 μg per cm^2
Antifactor activity Xa/ml at 6 hours ([3]; test 2d: Ag/AgCl, 0.2 mA/cm^2, no buffer): 18.1 units per ml
Antifactor activity Xa/ml at 24 hours ([3]; test 2d: Ag/AgCl, 0.2 mA/cm^2, 18 hours after current stopped): 24 units per ml
bioavailability ([4]; minipig, plasma, topical, test 4b, 40 mg engaged): ~21%
average quantity of pentasaccharide administered during the treatment ([4]; passive test 4a): zero
Initial plasma level ([4]; test 4a: passive, 0 mA/cm^2): 0 anti-Xa U/mL
Plasma level at 30 minutes ([4]; test 4a: passive, 0 mA/cm^2): 0
Plasma level at 1 hour ([4]; test 4a: passive, 0 mA/cm^2): 0
Plasma level at 2 hours ([4]; test 4a: passive, 0 mA/cm^2): 0
Plasma level at 4 hours ([4]; test 4a: passive, 0 mA/cm^2): 0
Plasma level at 6 hours ([4]; test 4a: passive, 0 mA/cm^2): 0
Plasma level at 8 hours ([4]; test 4a: passive, 0 mA/cm^2): 0
Plasma level at 10 hours ([4]; test 4a: passive, 0 mA/cm^2): 0
Plasma level at 12 hours ([4]; test 4a: passive, 0 mA/cm^2): 0
Plasma level at 16 hours ([4]; test 4a: passive, 0 mA/cm^2): 0
Plasma level at 26 hours ([4]; test 4a: passive, 0 mA/cm^2): 0
Plasma level at 30 hours ([4]; test 4a: passive, 0 mA/cm^2): 0
quantity of pentasaccharide administered per mAh ([4]; test 4b): 372 μg/cm^2
Initial plasma level [4, 6]: 0 anti-Xa U/mL
Plasma level at 30 minutes [4, 6]: 0.11 ± 0.05
Plasma level at 1 hour [4, 6]: 0.16 ± 0.05
Plasma level at 2 hours [4, 6]: 0.28 ± 0.1
Plasma level at 4 hours [4, 6]: 0.64 ± 0.2
Plasma level at 6 hours [4, 6]: 0.57 ± 0.18
Plasma level at 8 hours [4, 6]: 0.59 ± 0.15
Plasma level at 10 hours [4, 6]: 0.61 ± 0.16
Plasma level at 12 hours [4, 6]: 0.58 ± 0.05
Plasma level at 16 hours [4, 6]: 0.2 ± 0.05
Plasma level at 26 hours [4, 6]: 0.14 ± 0.02
Plasma level at 30 hours [4, 6]: 0.05 ± 0.02
average quantity of pentasaccharide administered during the treatment ([4]; test 4b, from area under the curve): 8.45 ± 1.5 mg
SMILES: O=C(O)C1OC(OC2C(COS(=O)(=O)O)OC(OC3C(C(=O)O)OC(OC4C(COS(=O)(=O)O)OC(O)C(NS(=O)(=O)O)C4O)C(OS(=O)(=O)O)C3O)C(NS(=O)(=O)O)C2OS(=O)(=O)O)C(O)C(O)C1OC1OC(COS(=O)(=O)O)C(O)C(O)C1NS(=O)(=O)O (stereo not drawn) [pentasaccharide]
quantities of pentasaccharide diffused into the receiver compartment by iontophoresis ([1]; irreversible electrodes such as graphite or titanium): very small and similar to the passive transport
antifactor Xa activity [2]: 0.65 "Golden Standard" units per microgram
